Measurements: patent US20260199438A1, “METHOD AND TREATMENT FOR DIABETES IN DOGS” (THE ROYAL VETERINARY COLLEGE, priority 2022, published 2026)
Read-outs that look alike come from different tables or passages of the source.

Key:
[1] = target: T1, wild-type (WT) KATP channels (Kir6.2/SUR1) (Homo sapiens, UniProt Q09428+Q14654)
[2] = target: T1, wild-type (WT) KATP channels (Kir6.2/SUR1); test: Two-electrode voltage-clamp whole-cell currents in Xenopus oocytes, wild-type channel; format: cell-based

T1 sequence (Q14654 whole entry): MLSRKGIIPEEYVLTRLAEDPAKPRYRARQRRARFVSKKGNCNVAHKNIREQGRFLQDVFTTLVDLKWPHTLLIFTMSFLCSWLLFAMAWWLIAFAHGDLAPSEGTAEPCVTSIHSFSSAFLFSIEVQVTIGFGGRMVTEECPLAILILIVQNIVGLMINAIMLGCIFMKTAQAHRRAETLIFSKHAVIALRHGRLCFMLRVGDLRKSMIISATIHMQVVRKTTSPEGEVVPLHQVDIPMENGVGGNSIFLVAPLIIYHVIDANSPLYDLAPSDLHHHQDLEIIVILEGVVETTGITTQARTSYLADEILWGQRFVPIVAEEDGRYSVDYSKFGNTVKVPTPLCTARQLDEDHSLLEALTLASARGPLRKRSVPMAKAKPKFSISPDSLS
T1 sequence (Q09428 whole entry): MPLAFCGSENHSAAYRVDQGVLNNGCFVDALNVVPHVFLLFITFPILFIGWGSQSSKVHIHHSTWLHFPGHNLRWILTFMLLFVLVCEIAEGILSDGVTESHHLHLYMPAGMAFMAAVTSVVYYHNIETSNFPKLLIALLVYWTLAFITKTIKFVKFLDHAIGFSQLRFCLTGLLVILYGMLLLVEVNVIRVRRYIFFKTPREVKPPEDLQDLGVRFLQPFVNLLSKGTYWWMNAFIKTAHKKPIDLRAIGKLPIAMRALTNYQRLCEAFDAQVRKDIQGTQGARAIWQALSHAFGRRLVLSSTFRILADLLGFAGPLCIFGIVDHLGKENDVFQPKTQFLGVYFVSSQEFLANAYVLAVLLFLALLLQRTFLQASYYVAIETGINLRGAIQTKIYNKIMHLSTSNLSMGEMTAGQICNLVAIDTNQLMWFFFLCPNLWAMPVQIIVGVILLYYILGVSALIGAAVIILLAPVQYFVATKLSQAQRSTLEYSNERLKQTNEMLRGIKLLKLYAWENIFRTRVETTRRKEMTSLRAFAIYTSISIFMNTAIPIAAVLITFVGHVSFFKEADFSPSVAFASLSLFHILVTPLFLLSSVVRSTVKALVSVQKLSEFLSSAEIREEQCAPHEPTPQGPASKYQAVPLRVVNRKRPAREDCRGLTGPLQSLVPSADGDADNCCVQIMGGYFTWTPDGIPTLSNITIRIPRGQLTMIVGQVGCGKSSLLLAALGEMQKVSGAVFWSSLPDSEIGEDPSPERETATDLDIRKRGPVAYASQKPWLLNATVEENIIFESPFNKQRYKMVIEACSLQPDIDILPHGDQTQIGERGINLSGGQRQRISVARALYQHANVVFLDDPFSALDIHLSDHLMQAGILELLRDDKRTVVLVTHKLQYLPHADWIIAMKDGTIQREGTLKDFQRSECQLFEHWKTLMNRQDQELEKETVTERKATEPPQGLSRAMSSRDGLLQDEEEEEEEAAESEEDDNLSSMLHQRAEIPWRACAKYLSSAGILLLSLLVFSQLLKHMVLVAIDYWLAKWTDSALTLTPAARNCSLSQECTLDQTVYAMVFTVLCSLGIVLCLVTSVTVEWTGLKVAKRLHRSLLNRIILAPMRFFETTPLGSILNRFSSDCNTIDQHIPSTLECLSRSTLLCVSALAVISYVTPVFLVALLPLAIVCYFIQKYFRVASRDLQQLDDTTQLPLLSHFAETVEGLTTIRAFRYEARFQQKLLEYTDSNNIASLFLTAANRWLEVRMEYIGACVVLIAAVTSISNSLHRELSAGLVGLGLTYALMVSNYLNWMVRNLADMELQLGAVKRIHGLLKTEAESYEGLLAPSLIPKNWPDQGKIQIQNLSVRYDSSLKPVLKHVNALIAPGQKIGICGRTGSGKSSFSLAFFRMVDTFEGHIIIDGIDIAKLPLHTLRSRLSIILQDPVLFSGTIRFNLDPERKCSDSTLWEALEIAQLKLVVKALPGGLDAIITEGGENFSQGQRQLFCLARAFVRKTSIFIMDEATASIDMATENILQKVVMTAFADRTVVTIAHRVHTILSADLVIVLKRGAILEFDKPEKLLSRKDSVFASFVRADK

Compound: Nc1ncnc2c1ncn2[C@@H]1O[C@H](COP(=O)(O)OP(=O)(O)OP(=O)(O)O)[C@@H](O)[C@H]1O [ATP, adenosine triphosphate]
- Hill coefficient h, fits to individual dose-response relationships (mean±SEM) ([1]; absence of Mg2+): 1.24±0.05
- Hill coefficient h, fit to the mean data ([1]; presence of Mg2+): 1.1
- Hill coefficient h, fits to individual dose-response relationships (mean±SEM) ([1]; presence of Mg2+): 1.12±0.04

Compound: [N-]=[N+]=[N-].[Na+] [Na-azide]
- activation of whole-cell currents by the metabolic inhibitor ([2]; WT, 3 mM Na-azide): activated

Compound: CCCCNC(=O)NS(=O)(=O)c1ccc(C)cc1 [tolbutamide]
- tolbutamide block, percentage block of the azide-induced current ([2]; WT channels, 0.5 mM tolbutamide after 3 mM Na-azide): > 95%
